Holding throughout (assay): relative viability (nuclei count vs DMSO), 5 days (fraction); higher = more cells survive
Compound in assay [1]: CN1CCN(CC1)C2=CC(=C(C=C2)NC3=NC(=C(S3)C(=O)C4=C(C=CC=C4Cl)Cl)N)OC [XMD14-99] + CC(=O)c1c(C)c2cnc(Nc3ccc(N4CCNCC4)cn3)nc2n(C2CCCC2)c1=O [Palbociclib] (partner 0.5 µM)
The essentials:
(§1)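 Relative viability was taken as the ratio of nuclei in treated wells to nuclei in vehicle wells. Lung cancer cell lines in 1536-well plates received compounds by pin tool one day after seeding, either one drug alone or a fixed anchor-drug dose plus five library-drug doses (not always all listed) in √10 steps. Nuclei were counted on 4× images after 5 days of treatment, and values are medians of duplicate plates.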

Compound in assay [2]: CN1CCN(CC1)C2=CC(=C(C=C2)NC3=NC(=C(S3)C(=O)C4=C(C=CC=C4Cl)Cl)N)OC [XMD14-99] + Cc1cc(Nc2cc(N3CCN(C)CC3)nc(Sc3ccc(NC(=O)C4CC4)cc3)n2)n[nH]1 [Tozasertib] (partner 0.1 µM)
The essentials: as §1

Compound in assay [3]: N[C@@H]1CCCN(c2c(/C=C3\SC(=O)NC3=O)cccc2-c2ccccc2)C1 [AZD1208]
The essentials:
(§2)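 Cells of lung cancer lines were placed in 1536-well plates and kept overnight at 37 °C. Pinning then delivered five library-drug doses (not always all listed), spaced by √10, onto plates anchored with vehicle, and the cells were left 5 days without changing medium. One step fixed, permeabilised and stained them with Hoechst, and MetaXpress counted nuclei in 4× images. Viability, as a median over plates, is treated-well nuclei divided by vehicle-well nuclei, with acceptance only at control CV below 25% and at least one doubling.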

Compound in assay [4]: CN1CCN(CC1)C2=CC(=C(C=C2)NC3=NC(=C(S3)C(=O)C4=C(C=CC=C4Cl)Cl)N)OC [XMD14-99]
In short, it runs like this:
as §2

UMC-11: the relative viability in assay [1] (first compound 0.08 µM) turned out to be 0.34; in assay [1] (first compound 0.8 µM), 0.383; in assay [1] (first compound 2.53 µM), 0.346; in assay [1] (first compound 8 µM) it was 0.292; in assay [2] (first compound 0.08 µM) it was 0.196; in assay [2] (first compound 0.8 µM), 0.227. Further, the relative viability in assay [2] (first compound 2.53 µM) came out at 0.231; in assay [2] (first compound 8 µM), 0.23; in assay [3] (0.08 µM), 0.85; in assay [3] (0.253 µM) it was 0.851; in assay [3] (0.8 µM), 0.713; in assay [3] (2.53 µM), 0.67. The relative viability was 0.511 in assay [3] (8 µM); 0.968 in assay [4] (0.08 µM); 1.02 in assay [4] (0.8 µM); 1 in assay [4] (2.53 µM); 0.83 in assay [4] (8 µM).
